Data taken from the Deep4Chem optical property database.
Blank lines part the entries; values can stand above or below the molecule they belong to.

Assay: solvent given as SMILES

emission maximum (in CC#N): 637 nm
emission maximum (in CCO): 631 nm
emission maximum (in ClCCl): 620 nm
emission maximum (in O): 650 nm
Compound: C=CCNc1ccc2ccc3oc4cc(=[N+](C)C)ccc-4nc3c2c1

emission maximum (in ClCCl): 457 nm
Compound: CCOC(=O)c1c(-c2cc3ccccc3oc2=O)nn(-c2ccc(OC)cc2)c1C(=O)OCC

emission maximum (in CCCCCC): 377 nm
emission maximum (in CO): 377 nm
emission maximum (in ClCCl): 378 nm
Compound: Cc1ccc2ccc3cccc4ccc1c2c34

emission maximum (in CC#N): 477 nm
Compound: CN(C)c1ccc(-c2nc3nccnc3n2-c2ccccc2)cc1

emission maximum (in CS(C)=O): 414 nm
emission maximum (in O): 428 nm
Compound: CCCCCn1c2ccccc2c(=O)c2ccccc21

emission maximum (in ClCCl): 742 nm
Compound: CCCCCCOc1cc(N(CC)CC)ccc1/C=C(\C#N)c1ccc(/C=C/C(=C(C#N)C#N)c2ccc3c(c2)c2ccccc2n3CC)s1

emission maximum (in C1CCCCC1): 333 nm
Compound: C[Si](C)(C)c1ccc([Si](C)(C)C)c2ccccc12

emission maximum (in C1CCCCC1): 497 nm
emission maximum (in CC#N): 533 nm
emission maximum (in CCO): 542 nm
emission maximum (in c1ccccc1): 519 nm
Compound: CNc1cccc2c1C(=O)c1ccccc1-2

emission maximum (in ClCCl): 460 nm
Compound: CCN(CC)c1ccc2cc(C#N)c(=O)oc2c1

emission maximum (in CC#N): 551 nm
Compound: Cc1ccc(-c2ccc(/C=C/c3ccc([N+](=O)[O-])cc3)cn2)nc1

emission maximum (in C1CCCCC1): 344 nm
Compound: COC(=O)c1nc(Cl)c(-c2ccccc2)o1

emission maximum (in CS(C)=O): 409 nm
Compound: Fc1ccc2sc3nc(-c4ccccc4)sc3c2c1

emission maximum (in C1CCOC1): 373 nm
emission maximum (in CC#N): 363 nm
emission maximum (in CS(C)=O): 385 nm
emission maximum (in ClC(Cl)Cl): 377 nm
Compound: COc1cccc2cc(-c3ccc([N+](=O)[O-])cc3)c(=O)oc12

emission maximum (in CS(C)=O): 537 nm
Compound: CCCCN1/C(=C/C=C/C2=[N+](C)c3ccccc3C2(C)C)Oc2ccccc21

emission maximum (in CO): 601 nm
emission maximum (in ClC(Cl)Cl): 603 nm
Compound: Cc1nc2c(ccc3c2sc(/C=C/c2ccc(N(CCO)CCO)cc2)[n+]3C)s1

emission maximum (in ClCCl): 519 nm
Compound: O=C1c2ccccc2-c2nc3ccccc3n21

emission maximum (in C1CCCCC1): 333 nm
Compound: C[Si](C)(C)c1ccc(C#N)c2ccccc12

emission maximum (in CC#N): 360 nm
emission maximum (in CCCCCC): 347 nm
Compound: Cc1ccc(C)n1-c1ccc(N(C)C)cc1

emission maximum (in CCCCCC): 397 nm
emission maximum (in CCCCCCCCO): 410 nm
emission maximum (in CCCCO): 411 nm
emission maximum (in CCCO): 410 nm
emission maximum (in CCO): 412 nm
emission maximum (in CCOC(C)=O): 404 nm
emission maximum (in CN(C)C=O): 411 nm
emission maximum (in CO): 413 nm
emission maximum (in ClC(Cl)Cl): 409 nm
Compound: COc1ccc2cc(-c3ccc(C(F)(F)F)cc3)oc(=O)c2c1

emission maximum (in CC#N): 477 nm
Compound: CCN(CC)c1ccc2cc(/C=C/c3ccccc3)c(=O)oc2c1

emission maximum (in CC#N): 533 nm
Compound: Cc1cc2nc3c(=O)[nH]c(=O)nc-3n(C)c2cc1C

More lines, now with the values behind:

Compound: c1ccc(-c2nc(-c3ccc(N4c5ccccc5C(c5ccccc5)(c5ccccc5)c5ccccc54)cc3)cc(-c3ccc(N4c5ccccc5C(c5ccccc5)(c5ccccc5)c5ccccc54)cc3)n2)cc1
emission maximum (in Cc1ccccc1): 456 nm
emission maximum (in O=P(c1ccccc1)(c1ccccc1)c1ccc2oc3ccc(P(=O)(c4ccccc4)c4ccccc4)cc3c2c1): 462 nm

Compound: O=[N+]([O-])c1ccc(N/C=C/C=[NH+]c2ccc([N+](=O)[O-])cc2)cc1
emission maximum (in CS(C)=O): 508 nm

Compound: CCCCCCCCN1C(=O)c2ccc3c4c(-c5ccc(-n6c7ccccc7c7ccccc76)cc5)cc5c6c(ccc(c7c(-c8ccc(-n9c%10ccccc%10c%10ccccc%109)cc8)cc(c2c37)C1=O)c64)C(=O)N(CCCCCCCC)C5=O
emission maximum (in ClC(Cl)Cl): 651 nm

Compound: Cc1ccc(-n2c3ccccc3c3cc(C=C(C#N)C#N)ccc32)cc1
emission maximum (in C1CCOC1): 454 nm
emission maximum (in CC#N): 516 nm
emission maximum (in CC(C)=O): 502 nm
emission maximum (in CCOC(C)=O): 474 nm
emission maximum (in CO): 519 nm
emission maximum (in CS(C)=O): 524 nm
emission maximum (in Cc1ccccc1): 454 nm
emission maximum (in ClC(Cl)Cl): 478 nm

Compound: O=c1cc(-c2ccccc2)oc(-c2nc3ccccn3c2NC2CCCCC2)c1
emission maximum (in ClCCl): 475 nm

Compound: [O-]c1c(-c2nc3ccccc3s2)cc2ccc3cccc4ccc1c2c34
emission maximum (in CC#N): 553.72 nm
emission maximum (in CS(C)=O): 555 nm

Compound: COc1ccc2c(c1)c1cc(OC)ccc1n2-c1ccc(S(=O)(=O)c2ccc(-n3c4ccc(OC)cc4c4cc(OC)ccc43)cc2)cc1
emission maximum (in Cc1ccccc1): 445 nm

Compound: COc1ccc(-n2c(-c3ccc(-c4cncc5ccccc45)cc3)nc(-c3ccccc3)c2-c2ccccc2)cc1
emission maximum (in C1CCOC1): 432 nm

Compound: CC(C)[Si](C#Cc1c2cc3ccccc3cc2c(C#Cc2ccc(C(F)(F)F)cc2)c2cc3ccccc3cc12)(C(C)C)C(C)C
emission maximum (in ClCCl): 667 nm

Compound: C(=C\c1nc(-c2ccccc2)c2ccccn12)/c1nc(-c2ccccc2)c2ccccn12
emission maximum (in CC#N): 491 nm

Compound: CCC1=C(CC)C(C)=[N+]2C1=Cc1c(C)c3cc4c(cc3n1[B-]2(F)F)=[N+]1C(=Cc2c(CC)c(CC)c(C)n2[B-]1(F)F)C=4C
emission maximum (in ClC(Cl)Cl): 703 nm

Compound: CCn1c2c(-c3ccc(-c4cccs4)s3)cc(C(C)(C)C)cc2c2cc(C(C)(C)C)cc(-c3ccc(-c4cccs4)s3)c21
emission maximum (in ClCCl): 440 nm

Compound: CN1/C(=C/C=C(/C=C/C2=[N+](C)c3ccccc3C2(C)C)c2ccc(C(F)(F)F)cc2)C(C)(C)c2ccccc21
emission maximum (in CCO): 665 nm
emission maximum (in CO): 659 nm
emission maximum (in CS(C)=O): 665 nm
emission maximum (in O): 658 nm

Compound: Cc1ccc2c(c1)C1(c3ccccc3-c3ccccc31)c1cc(C)ccc1N2c1ccc2c(c1)Sc1ccccc1P2(=O)c1ccccc1 (configuration not stated)
emission maximum (in Cc1ccccc1): 454.61 nm

Compound: CC1(C)C(/C=C/C2=C(Cl)C(=C/C=C3/N(Cc4ccc([N+](=O)[O-])cc4)c4ccccc4C3(C)C)/CCC2)=[N+](Cc2ccc([N+](=O)[O-])cc2)c2ccccc21
emission maximum (in CO): 807 nm

Compound: Cc1c(COC(=O)Cc2c[nH]c3ccccc23)n2c(OCC(=O)Cc3c[nH]c4ccccc34)c(C)c(=O)n2c1=O
emission maximum (in CCO): 452 nm

Compound: N#Cc1ccc(-c2ccc3c(c2)c2cc(-c4ccc(C#N)cc4)ccc2c2c3nc(-c3ccc(N(c4ccccc4)c4ccccc4)cc3)n2-c2ccccc2)cc1
emission maximum (in C1CCOC1): 449.94 nm
emission maximum (in CC#N): 479.9 nm
emission maximum (in CCCCCC): 419.62 nm
emission maximum (in CCOCC): 439.6 nm

Compound: CCCCCCCCn1c(=O)c2cc3cc4cc5c(=O)n(CCCCCCCC)c(=O)c5cc4c(C#Cc4ccc(N(c5ccccc5)c5ccccc5)cc4)c3cc2c1=O
emission maximum (in ClC(Cl)Cl): 611 nm

Compound: c1ccc(CO[Si]23n4c5c6ccccc6c4/N=C4N=C(/N=c6/c7ccccc7c(n62)=c2c6ccccc6c(n23)=N5)c2ccccc2\4)cc1 (configuration not stated)
emission maximum (in CN(C)C=O): 671 nm

Compound: CCCCCCCCCCCCCCCCn1c(-c2cc(-c3nc4ccccc4n3CCCCCCCCCCCCCCCC)cc(-c3nc4ccccc4n3CCCCCCCCCCCCCCCC)c2)nc2ccccc21
emission maximum (in C1CCOC1): 363 nm

Compound: c1ccc2c(c1)Sc1ccccc1N2c1ccc2c(c1)C1(CC1)c1cc(N3c4ccccc4Sc4ccccc43)ccc1-2
emission maximum (in Cc1ccccc1): 494 nm

Compound: [O-][n+]1c(/C=C/C=C/c2ccccc2)nc(N2CCOCC2)c2c1CCCC2
emission maximum (in ClCCl): 546 nm

Compound: COc1ccc(/C=C/C2=CC(/C=C/c3ccc(OC)cc3)=[O+][B-](OC(C)=O)(OC(C)=O)O2)cc1
emission maximum (in C1CCOC1): 518 nm
emission maximum (in CC#N): 541 nm
emission maximum (in CC(C)=O): 531 nm
emission maximum (in CS(C)=O): 548 nm
emission maximum (in Cc1ccccc1): 510 nm
emission maximum (in ClC(Cl)Cl): 529 nm
emission maximum (in ClCCl): 535 nm

Compound: F[B-]1(F)OC(c2ccc(N3CCCCC3)cc2)=Cc2cccc[n+]21
emission maximum (in ClC(Cl)Cl): 499 nm

Compound: c1ccc(COc2cc(C[n+]3ccc(-c4cc[n+](Cc5cc(OCc6ccccc6)cc(OCc6ccccc6)c5)cc4)cc3)cc(OCc3ccccc3)c2)cc1
emission maximum (in CC#N): 365 nm

Compound: COc1cc(/C=C/c2nc3ccccc3s2)c(OC)cc1/C=C/c1nc(C)nc(C)n1
emission maximum (in C1CCOC1): 488 nm
emission maximum (in CC#N): 499 nm
emission maximum (in ClC(Cl)Cl): 494 nm
emission maximum (in ClCCl): 496 nm

Compound: CSc1ccc2c(c1)N(CCCN1CCN(C)CN1C)c1ccccc1S2
emission maximum (in CC#N): 455 nm
emission maximum (in CO): 453 nm
emission maximum (in O): 466 nm

Compound: N#CC1=CC(/C=C/c2ccccc2)=CC(C#N)=P1(c1ccccc1)c1ccccc1
emission maximum (in ClC(Cl)Cl): 581 nm

Compound: F[B-]1(F)OC(c2ccc(C(F)(F)F)cc2)=Cc2ccc3ccccc3[n+]21
emission maximum (in ClC(Cl)Cl): 434 nm

Compound: C#CCOc1ccc(/C=C/C2=[N+]3C(=C(c4ccc(N5CCCCC5)cc4)c4c(C)cc(C)n4[B-]3(F)F)C(C)=C2)cc1
emission maximum (in CO): 582 nm

Compound: [NH3+]C(Cc1ccc(O)c(O)c1)C(=O)[O-] (configuration not stated)
emission maximum (in O): 318 nm

Compound: C1=C(c2ccccc2)C=C(c2ccccc2)/C1=C/c1ccc2ccc3cccc4ccc1c2c34
emission maximum (in C1CCOC1): 480 nm

Compound: COc1c2ccccc2c(-c2ccccc2)c2ccccc12
emission maximum (in C1COCCO1): 424 nm
emission maximum (in CCCCCC): 420 nm
emission maximum (in CCCCCCC): 420 nm
emission maximum (in CCCCO): 426 nm
emission maximum (in CCO): 426 nm
emission maximum (in CN(C)C=O): 426 nm
emission maximum (in Cc1ccccc1): 419 nm
emission maximum (in ClC(Cl)(Cl)Cl): 426 nm
emission maximum (in ClC(Cl)Cl): 426 nm
emission maximum (in ClCCl): 426 nm
emission maximum (in OCC(O)CO): 426 nm
emission maximum (in OCCO): 426 nm

Compound: COc1c2ccccc2c(OC)c2c(C#Cc3ccccc3)c3cc4sccc4cc3c(C#Cc3ccccc3)c12
emission maximum (in ClCCl): 672 nm

Compound: CC(=O)n1cc(/C=C/c2ccc([N+](=O)[O-])cc2)c2ccccc21
emission maximum (in CC#N): 428 nm
emission maximum (in CCCCCCC): 408 nm
emission maximum (in CO): 424 nm
emission maximum (in O): 537 nm

Compound: CCN1c2ccc(/C=N/Nc3ccccn3)cc2Sc2cc(-c3ccc(OC)cc3)ccc21
emission maximum (in C1CCOC1): 491 nm
emission maximum (in CS(C)=O): 503 nm
emission maximum (in Cc1ccccc1): 484 nm
emission maximum (in ClCCl): 497 nm

Compound: CCCCC1=Cc2c3ccc4cccc5ccc(c6cc(-c7ccc(N(c8ccccc8)c8ccccc8)cc7)n(c26)P1(=O)c1ccccc1)c3c45 (configuration not stated)
emission maximum (in C1CCCCC1): 502 nm
emission maximum (in C1CCOC1): 541 nm
emission maximum (in C1COCCO1): 526 nm
emission maximum (in CC#N): 572 nm
emission maximum (in CC(C)=O): 560 nm
emission maximum (in CO): 563 nm
emission maximum (in Cc1ccccc1): 518 nm
emission maximum (in ClC(Cl)Cl): 537 nm
emission maximum (in ClCCl): 551 nm

Compound: CC(C)[Si](C#Cc1c2nsnc2c(C#C[Si](C(C)C)(C(C)C)C(C)C)c2nc3c(ccc4ccccc43)nc12)(C(C)C)C(C)C
emission maximum (in CCCCCC): 617 nm
